Assay results reported in ChEMBL document CHEMBL4382293, “Triazolopyrimidines and Imidazopyridines: Structure-Activity Relationships and in Vivo Efficacy for Trypanosomiasis” (ACS Med Chem Lett, 2019).

Columns and labels:
Assay type in all cases: ADME, organism-based
[1] = Ratio of drug level in brain to plasma in Swiss Webster mouse at 5 mg/kg, ip measured after 1 hr by LC/MS analysis; details: for Kp at 1 h: Swiss Webster, brain/plasma, read-out: BPR
[2] = Cmax in Swiss Webster mouse at 50 mg/kg, po administered as single dose via gavage by LC/MS analysis; parameters: dose 50 mg/kg, route oral; details: in vivo
[3] = AUC in Swiss Webster mouse at 50 mg/kg, po administered as single dose via gavage by LC/MS analysis; details: in vivo
[4] = Drug level in Swiss Webster mouse brain at 5 mg/kg, ip measured after 1 hr by LC/MS analysis; details: read-out: Drug uptake
[5] = Oral bioavailability in Swiss Webster mouse at 50 mg/kg administered as single dose via gavage by LC/MS analysis; details: in vivo
[6] = Volume of distribution at steady state in Swiss Webster mouse at […], iv administered as single dose by LC/MS analysis; details: in vivo, read-out: Vdss
[7] = Drug level in Swiss Webster mouse plasma at 5 mg/kg, ip measured after 1 hr by LC/MS analysis

SMILES	Kp at 1 h [1]	Cmax [2] [µM]	AUC [3] [µM·h]	BPR ([1]; brain, 1 h)	concentration at 1 h [4] [µM]	bioavailability [5] [%]	Vd [6] [L/kg]	concentration at 1 h [7] [µM]
O=C(Nc1ccc(F)c(-c2nc3ncc(-c4ccc(F)cc4)cc3[nH]2)c1)N1CCCC1	0.04	6.27	24.3	–	–	–	–	–
O=C(Nc1ccc(F)c(-c2nc3cc(-c4ccccc4)cnc3[nH]2)c1)N1CCCC1	–	–	20.7	0.04	–	–	–	–
O=C(Nc1ccc(F)c(-c2nc3ncc(-c4cncc(F)c4)cc3[nH]2)c1)N1CCCC1	–	1.07	3.7	–	–	–	–	–
O=C(Nc1ccc(F)c(-c2nc3ncc(-c4ccc(O)cc4)cc3[nH]2)c1)N1CCCC1	–	0.13	0.328	–	–	–	–	–
Cc1nc(C)c(C(=O)Nc2ccc(F)c(-c3nc4ncc(-c5ccccn5)cn4n3)c2)o1	0.12	54.4	765	–	–	–	–	–
Cc1nc(C)c(C(=O)Nc2ccc(F)c(-c3nc4ncc(-c5ccccc5Cl)cn4n3)c2)o1	0.23	39.3	667	–	1.9	70	0.7 to 1.1	8.8
O=C(Nc1ccc(F)c(-c2nc3ncc(-c4ccccn4)cn3n2)c1)N1CCC(F)(F)C1	0.02	31.1	262	–	–	70	0.7 to 1.1	–

The next lines start with the values.

Kp at 1 h [1]	Cmax [2] [µM]	AUC [3] [µM·h]	BPR ([1]; brain, 1 h)	concentration at 1 h [4] [µM]	bioavailability [5] [%]	Vd [6] [L/kg]	concentration at 1 h [7] [µM]	SMILES
0.08	1.08	1.24	–	–	–	–	–	O=C(Nc1ccc(F)c(-c2nc3ncc(C(F)(F)F)cc3[nH]2)c1)N1CCCC1
0.02	6.67	27.5	–	–	–	–	–	O=C(Nc1ccc(F)c(-c2nc3ncc(-c4ccc(F)c(F)c4)cc3[nH]2)c1)N1CCCC1
–	7	35.8	–	–	–	–	–	O=C(Nc1ccc(F)c(-c2nc3ncc(-c4cccc(F)c4)cc3[nH]2)c1)N1CCCC1
–	4.8	21.5	–	–	–	–	–	O=C(Nc1ccc(F)c(-c2nc3ncc(-c4cc(F)cc(F)c4)cc3[nH]2)c1)N1CCCC1
–	1.83	10.8	–	–	–	–	–	O=C(Nc1ccc(F)c(-c2nc3ncc(-c4cccc(F)c4F)cc3[nH]2)c1)N1CCCC1
–	2.8	12.8	–	–	–	–	–	O=C(Nc1ccc(F)c(-c2nc3ncc(-c4cc(F)ccc4F)cc3[nH]2)c1)N1CCCC1
0.02	2.23	11.6	–	–	–	–	–	O=C(Nc1ccc(F)c(-c2nc3ncc(-c4ccccc4F)cc3[nH]2)c1)N1CCCC1
–	25.6	73.5	–	–	–	–	–	O=C(Nc1ccc(F)c(-c2nc3ncc(-c4cccnc4F)cc3[nH]2)c1)N1CCCC1
0.01	9.5	35.7	–	–	–	–	–	O=C(Nc1ccc(F)c(-c2nc3ncc(-c4ccc(F)cc4F)cc3[nH]2)c1)N1CCCC1
